# Columns and labels:
# [1] = target: T1, chymotrypsin-like site of 26S proteasomes (Oryctolagus cuniculus, UniProt G1T4Q9); experiment: Inhibition of purified 26S proteasomes, substrate Suc-LLVY-amc; type: biochemical, rabbit; settings: >>30 no inhibition at 30 μM, >30 inhibition between 10 and 50% at 30 μM, read-out: IC50 for sites in 26S proteasomes: Chym-L
# T1 sequence (G1T4Q9 1-263): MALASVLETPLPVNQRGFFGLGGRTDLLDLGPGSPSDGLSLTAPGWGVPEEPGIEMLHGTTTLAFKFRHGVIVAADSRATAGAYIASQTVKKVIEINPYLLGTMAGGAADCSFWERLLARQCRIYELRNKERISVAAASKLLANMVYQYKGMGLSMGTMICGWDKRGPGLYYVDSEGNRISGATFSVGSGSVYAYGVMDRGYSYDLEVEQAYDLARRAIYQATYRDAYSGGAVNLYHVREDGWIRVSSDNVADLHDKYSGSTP
# cathepsin D = target: T2, cathepsin D (Homo sapiens, UniProt P07339); experiment: Cathepsin D activity assay (SENSOLYTE 520); type: cell-based; settings: concentrations as high as 27 μM
# T2 construct: endogenous in cells
# Procedure: Cathepsin B, H, L, S activity was measured with pan-cathepsin substrate Z-FR-amc (Kirschke & Wiederanders (1994) Methods Enzymol. 244:500-11) in extracts of cytosol-less cells at pH 6.0 (Screen, et al. (2010) supra). Cathepsin D activity was measured in cytosol-less extracts using SENSOLYTE 520 Cathepsin D Fluorometric Assay Kit (AnaSpec). Combined cathepsin D and E activity was measured using the same kit, in which cathepsin D substrate provided with the kit was replaced with 7-Methoxycoumarin-[…](Dnp)-X′-NH2 (SEQ ID NO:10; where “X′” stand for D-Arg) internally quenched fluorogenic substrate of cathepsin D and E. In this case, pH 3.0 assay buffer used for cell extraction. All activity observed using both procedures was inhibited by more than 98% by specific inhibitor of aspartic proteases pepstatin A.
# β2 and β2i sites = experiment: MV-151 label-competition in extracts of RPMI-8226 MM cells; type: biochemical; settings: extracts of RPMI-8226 cells, MV-151 probe
# Text: Multiple myeloma cells express constitutive proteasomes and immunoproteasomes, and substrates used for the measurement of activity were cleaved by both. To determine whether there were any differences in inhibition of constitutive proteasomes or immunoproteasomes by NC-002, NC-012, and NC-022, the fluorescent activity-based probe MV-151 (Verdoes, et al. (2006) Chem. Biol. 13:1217-1226) was used in a label-competition experiment. Extracts of RPMI-8226 MM cells (which express more immunoproteasomes than NCI-H929 cells) were treated first with the NC inhibitors and then with the MV-151 probe. This was followed by fractionation on SDS-PAGE to separate proteasome subunits and imaging to reveal those subunits labeled by the probe (i.e., unmodified by the inhibitors).
# T2 sequence (P07339 65-412): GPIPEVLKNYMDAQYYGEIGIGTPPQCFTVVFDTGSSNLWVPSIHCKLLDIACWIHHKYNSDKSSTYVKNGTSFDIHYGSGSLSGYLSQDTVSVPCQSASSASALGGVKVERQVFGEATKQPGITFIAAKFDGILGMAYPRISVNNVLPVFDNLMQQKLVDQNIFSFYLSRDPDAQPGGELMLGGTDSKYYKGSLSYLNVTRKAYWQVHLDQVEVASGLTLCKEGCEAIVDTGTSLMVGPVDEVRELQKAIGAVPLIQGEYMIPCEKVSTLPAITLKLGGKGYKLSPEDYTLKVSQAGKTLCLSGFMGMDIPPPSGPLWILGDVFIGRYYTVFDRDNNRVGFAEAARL
compound,measurement,setting,value
"Cc1c(O)cccc1C(=O)N[C@H](C(=O)N[C@@H](CO)C(=O)N[C@@H](CCCNC(=N)N)C(=O)[C@@]1(C)CO1)C(C)C [NC-022, HMB-Val-Ser-Arg-ek]",IC50,[1],1700 nM
same,inhibition of cathepsin D,cathepsin D,did not inhibit
same,inhibition of constitutive (β2) versus immunoproteasome (β2i) trypsin-like sites,β2 and β2i sites,equipotent inhibitors of the trypsin-like sites of constitutive and immunoproteasomes

# — patent US8609610B2, “Inhibitors of the trypsin-like site of the proteasome and methods of use thereof” (Trustees of Dartmouth College, priority 2011, dated 2013)
